In ChEMBL document CHEMBL3797134, “Selectivity of 3-bromo-isoxazoline inhibitors between human and Plasmodium falciparum glyceraldehyde-3-phosphate dehydrogenases” (Bioorg Med Chem, 2016):
Activity calls are given as the source filed them. No cut-off for these calls is given here.

Key:
[1] = target: Glyceraldehyde-3-phosphate dehydrogenase (Plasmodium falciparum) (UniProt Q8T6B1); test: Slow phase inhibition of recombinant His-tagged Plasmodium falciparum GAPDH expressed in Escherichia coli using sodium arseniate as substrate assessed as ratio of Kinact to Ki by Kitz-Wilson double reciprocal plot analysis
Chain of Glyceraldehyde-3-phosphate dehydrogenase (Plasmodium falciparum) (Q8T6B1 as listed by the source): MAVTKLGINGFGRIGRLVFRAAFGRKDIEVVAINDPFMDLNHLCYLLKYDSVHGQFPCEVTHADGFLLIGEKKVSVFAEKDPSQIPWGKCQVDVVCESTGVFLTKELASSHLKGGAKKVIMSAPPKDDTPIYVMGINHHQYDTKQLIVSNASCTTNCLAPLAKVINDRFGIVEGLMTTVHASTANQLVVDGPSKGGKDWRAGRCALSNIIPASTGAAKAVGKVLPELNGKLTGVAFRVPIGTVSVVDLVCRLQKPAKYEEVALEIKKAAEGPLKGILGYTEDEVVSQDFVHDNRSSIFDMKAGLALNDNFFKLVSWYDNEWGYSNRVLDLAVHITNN

[2] = target: Glyceraldehyde-3-phosphate dehydrogenase (Homo sapiens) (UniProt P04406); test: Inhibition of recombinant N-terminal His-tagged human GAPDH expressed in Escherichia coli BL21 codonPlus (DE3)-RIL cells using sodium arseniate as substrate at 10 to 300 uM
Chain of Glyceraldehyde-3-phosphate dehydrogenase (Homo sapiens) (P04406 2-335 limits assumed): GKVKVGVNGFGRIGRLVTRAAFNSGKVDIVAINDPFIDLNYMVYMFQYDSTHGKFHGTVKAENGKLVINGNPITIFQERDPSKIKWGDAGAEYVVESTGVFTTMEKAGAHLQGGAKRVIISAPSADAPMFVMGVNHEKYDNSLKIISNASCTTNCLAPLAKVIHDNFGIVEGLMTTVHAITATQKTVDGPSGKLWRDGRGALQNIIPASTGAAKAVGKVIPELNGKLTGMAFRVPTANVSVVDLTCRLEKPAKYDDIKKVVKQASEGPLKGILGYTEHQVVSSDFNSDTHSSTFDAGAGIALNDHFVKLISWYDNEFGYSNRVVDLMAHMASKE

[3] = target: Glyceraldehyde-3-phosphate dehydrogenase (Plasmodium falciparum) (UniProt Q8T6B1); test: Inhibition of recombinant His-tagged Plasmodium falciparum GAPDH expressed in Escherichia coli using sodium arseniate as substrate at 50 to 300 uM
[4] = target: Glyceraldehyde-3-phosphate dehydrogenase (Plasmodium falciparum) (UniProt Q8T6B1); test: Fast phase inhibition of recombinant His-tagged Plasmodium falciparum GAPDH expressed in Escherichia coli using sodium arseniate as substrate assessed as ratio of Kinact to Ki by Kitz-Wilson double reciprocal plot analysis
[5] = target: Glyceraldehyde-3-phosphate dehydrogenase (Homo sapiens) (UniProt P04406); test: Effect on dimer to tetramer equilibrium of recombinant N-terminal His-tagged human GAPDH expressed in Escherichia coli BL21 codonPlus (DE3)-RIL cells at 50 uM after 4 hrs by gel filtration method
[6] = target: Glyceraldehyde-3-phosphate dehydrogenase (Homo sapiens) (UniProt P04406); test: Fast phase inhibition of recombinant N-terminal His-tagged human GAPDH expressed in Escherichia coli BL21 codonPlus (DE3)-RIL cells using sodium arseniate as substrate assessed as ratio of Kinact to Ki by Kitz-Wilson double reciprocal plot analysis
[7] = target: Glyceraldehyde-3-phosphate dehydrogenase (Homo sapiens) (UniProt P04406); test: Binding affinity to recombinant N-terminal His-tagged human GAPDH expressed in Escherichia coli BL21 codonPlus (DE3)-RIL cells assessed as decrease in reactive cysteine content at 50 uM after 4 hrs relative to control; parameters: scale not given: the % may be the effect or the level left
[8] = target: Glyceraldehyde-3-phosphate dehydrogenase (Homo sapiens) (UniProt P04406); test: Binding affinity to recombinant N-terminal His-tagged human GAPDH expressed in Escherichia coli BL21 codonPlus (DE3)-RIL cells assessed as remaining cysteine pKa at 300 uM after 4 hrs (reference value: 6)
COc1ccc(C2CC(Br)=NO2)cc1 [9] = test: Binding affinity to recombinant N-terminal His-tagged human GAPDH expressed in Escherichia coli BL21 codonPlus (DE3)-RIL cells assessed as enzyme Vmax at 50 uM after 4 hrs by Michaelis-Menten plot analysis (reference value: 0.069 +/- 0.003 mM/min)
COc1ccc(C2CC(Br)=NO2)cc1 [10] = test: Binding affinity to recombinant N-terminal His-tagged human GAPDH expressed in Escherichia coli BL21 codonPlus (DE3)-RIL cells assessed as enzyme Km at 50 uM after 4 hrs by Michaelis-Menten plot analysis (reference value: 340+/- 5 uM)

Chain of Glyceraldehyde-3-phosphate dehydrogenase (Homo sapiens), P04406 (P04406 whole entry): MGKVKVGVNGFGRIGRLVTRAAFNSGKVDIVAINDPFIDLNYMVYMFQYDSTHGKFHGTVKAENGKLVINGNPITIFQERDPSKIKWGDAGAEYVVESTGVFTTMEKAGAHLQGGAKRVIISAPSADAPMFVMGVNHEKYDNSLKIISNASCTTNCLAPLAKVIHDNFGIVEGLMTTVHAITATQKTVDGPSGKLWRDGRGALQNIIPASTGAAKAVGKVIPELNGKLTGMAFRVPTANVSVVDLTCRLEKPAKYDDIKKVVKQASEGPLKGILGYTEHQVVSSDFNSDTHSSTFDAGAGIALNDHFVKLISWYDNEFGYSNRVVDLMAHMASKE

| Ratio [1] [s⁻¹ M⁻¹] | inhibition [2] | inhibition [3] [%] | Ratio [4] [s⁻¹ M⁻¹] | Activity [5] | Ratio [6] [s⁻¹ M⁻¹] | Activity [7] [%] | pKa [8] | Compound | Vmax (COc1ccc(C2CC(Br)=NO2)cc1 [9]) [mM/min] | Km (COc1ccc(C2CC(Br)=NO2)cc1 [10]) [µM] |
| --- | --- | --- | --- | --- | --- | --- | --- | --- | --- | --- |
| 0.34 | Active | 25 | 59.9 | inactive | 142 | 7.8 | 6.3 | COc1ccc(C2CC(Br)=NO2)cc1 (stereo unspecified) |  |  |
| 10.7 |  |  |  |  |  |  |  | COC(=O)[C@@H](N)[C@@H]1CC(Br)=NO1 |  |  |
|  |  |  |  |  |  |  |  | Glyceraldehyde-3-phosphate dehydrogenase (Homo sapiens), P04406 | 0.051 | 299 |
